Measured values reported in US20250361268A1, “NOVEL ANTI-INFLAMMATORY PEPTIDE AND USE THEREOF” (NOVACELL TECHNOLOGY INC., priority 2022, published 2025).
Peptide text beside a SMILES is read from it.

How the values were obtained:
FPR2 = target: T1, FPR2 (Homo sapiens, UniProt P25090); assay: Change in calcium activity by peptide (Fura-2) in RBL cells overexpressing FPR2; type: cell-based; conditions: calcium activity (Fura-2), graded per Table 3, read-out: EC50 for [Ca^2+] FPR2
T1 construct: expressed in transfected cells; host or cells: RBL cells (RBL-FPR2)
T1 sequence (P25090 1-351): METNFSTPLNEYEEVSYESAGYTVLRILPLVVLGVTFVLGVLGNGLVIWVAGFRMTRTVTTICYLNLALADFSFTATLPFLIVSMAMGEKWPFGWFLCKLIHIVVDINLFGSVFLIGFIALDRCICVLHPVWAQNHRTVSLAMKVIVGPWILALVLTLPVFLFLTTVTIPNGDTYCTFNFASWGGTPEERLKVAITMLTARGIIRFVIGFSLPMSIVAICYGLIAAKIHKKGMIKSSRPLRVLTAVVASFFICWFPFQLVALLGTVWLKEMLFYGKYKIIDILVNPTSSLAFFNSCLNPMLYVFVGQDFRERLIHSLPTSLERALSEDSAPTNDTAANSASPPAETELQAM
Method in brief: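 Peptide-induced intracellular calcium change measured by Fura-2 fluorescence on a plate reader. Cells: RBL line overexpressing FPR2, dye-loaded 1 h at 37 °C then 30 min at RT in dark; peptides from 0.5 mM water/50% DMSO stocks, diluted in HBSS with 20 mM HEPES.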

FPR1 = target: T2, FPR1 (Homo sapiens, UniProt P21462); assay: Change in calcium activity by peptide, FPR1 activation effect; type: cell-based; conditions: calcium activity (Fura-2), graded per Table 3, read-out: EC50 for [Ca^2+] FPR1
T2 sequence (P21462 1-350): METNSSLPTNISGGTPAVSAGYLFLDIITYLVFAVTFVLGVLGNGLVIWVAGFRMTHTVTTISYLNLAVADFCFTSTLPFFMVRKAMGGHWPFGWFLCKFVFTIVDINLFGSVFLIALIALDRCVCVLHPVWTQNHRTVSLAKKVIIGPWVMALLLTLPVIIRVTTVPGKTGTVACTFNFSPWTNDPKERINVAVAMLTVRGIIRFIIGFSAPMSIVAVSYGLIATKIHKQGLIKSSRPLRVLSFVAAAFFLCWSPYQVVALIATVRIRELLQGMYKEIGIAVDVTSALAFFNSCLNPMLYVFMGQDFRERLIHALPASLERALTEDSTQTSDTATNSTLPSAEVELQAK
Method in brief: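 Calcium flux induced by peptide addition was monitored on a FlexStation 3 plate reader. Before this, cells seeded a day earlier (3×10^5/well) took up the Fura-2 dye for 1 h at 37 °C plus 30 min dark at room temperature.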

RAW264.7 cell line = assay: Cytokine inhibition ability: LPS-induced cytokine gene expression in RAW264.7 macrophages; type: cell-based, mouse; conditions: grade of reduction rate of gene expression, peptide 100 nM, LPS 200 ng/mL, 6 hours
Method: The present inventors observed the cytokine inhibition ability of the immunomodulatory peptide candidates prepared according to one example of the present invention. Specifically, to confirm whether the peptides reduce inflammatory responses in cells, changes in cytokine gene expression in cells upon inflammation was measured.
The present inventors used a RAW264.7 cell line, that is, mouse macrophages, and used lipopolysaccharide (LPS; Sigma-Aldrich, #L2630), which is the main component of a gram-negative bacterial cell wall, as a material causing an inflammatory response. A peptide that had been dissolved in water at 100 μM was prepared.
In the present experiment, the cells were cultured in a DMEM (Lonza, #BE12-604F) containing 10% FBS and 1% penicillin-streptomycin under conditions of 37° C. and 5% CO2.
The cells were plated in a 24-well plate (Costar, #3603) at a density of 2.5×10^5 cells/well. After 24 hours, the prepared cells were treated with the peptide at 100 nM. After incubation at 37° C. for 30 minutes, to induce inflammation, 200 ng/mL of LPS was treated. After incubation at 37° C. for 6 hours, the cells in a medium-free state were treated with TRIzol™ (Invitrogen, #15596018) to lyse the cells. Through the given experimental method, RNA was obtained, cDNA was produced using a reverse transcriptase (Promega, #M1705). Afterward, a cytokine expression level was measured using SYBR Green (Enzynomics, RT530) and mouse primers of each inflammatory cytokine gene (TNFα, IL-6, and IL-1β).

| SMILES | EC50 (FPR2) [nM] | EC50 (FPR1) [nM] | Cytokine inhibition ability IL-1β (RAW264.7 cell line) | Cytokine inhibition ability IL-6 (RAW264.7 cell line) | Cytokine inhibition ability TNFα (RAW264.7 cell line) |
| --- | --- | --- | --- | --- | --- |
| CCCCCCCC(=O)N[C@@H](CCCCN)C(=O)N[C@@H](CCSC)C(=O)N[C@@H](CCCCN)C(=O)N[C@@H](Cc1ccc(O)cc1)C(=O)N[C@@H](CCCCN)C(=O)N1CCC[C@H]1C(=O)N[C@H](CCSC)C(N)=O [Peptide 69] (HELM PEPTIDE1{[CCCCCCCC(=O)[*:2]].K.M.K.Y.K.P.[dM].[am]}$$$$V2.0) | 11 to 100 | > 10000 | A (81%-100%) | C (41%-60%) | B (61%-80%) |
| CSCC[C@H](N)C(=O)N[C@@H](CCCCN)C(=O)N[C@@H](Cc1ccc(O)cc1)C(=O)N[C@@H](CCCCN)C(=O)N1CCC[C@H]1C(=O)N[C@H](CCSC)C(N)=O [Peptide 70] (HELM PEPTIDE1{M.K.Y.K.P.[dM].[am]}$$$$V2.0) | < 10 | > 10000 | A (81%-100%) | D (21%-40%) | C (41%-60%) |
| CSCC[C@H](NC(C)=O)C(=O)N[C@@H](CCCCN)C(=O)N[C@@H](Cc1ccc(O)cc1)C(=O)N[C@@H](CCCCN)C(=O)N1CCC[C@H]1C(=O)N[C@H](CCSC)C(N)=O [Peptide 71] (HELM PEPTIDE1{[ac].M.K.Y.K.P.[dM].[am]}$$$$V2.0) | 11 to 100 | > 10000 | A (81%-100%) | C (41%-60%) | C (41%-60%) |
| CCCC(=O)N[C@@H](CCSC)C(=O)N[C@@H](CCCCN)C(=O)N[C@@H](Cc1ccc(O)cc1)C(=O)N[C@@H](CCCCN)C(=O)N1CCC[C@H]1C(=O)N[C@H](CCSC)C(N)=O [Peptide 72] (HELM PEPTIDE1{[CCCC(=O)[*:2]].M.K.Y.K.P.[dM].[am]}$$$$V2.0) | 11 to 100 | > 10000 | B (61%-80%) | D (21%-40%) | B (61%-80%) |
| CCCCCCCC(=O)N[C@@H](CCSC)C(=O)N[C@@H](CCCCN)C(=O)N[C@@H](Cc1ccc(O)cc1)C(=O)N[C@@H](CCCCN)C(=O)N1CCC[C@H]1C(=O)N[C@H](CCSC)C(N)=O [Peptide 73] (HELM PEPTIDE1{[CCCCCCCC(=O)[*:2]].M.K.Y.K.P.[dM].[am]}$$$$V2.0) | 11 to 100 | > 10000 | B (61%-80%) | D (21%-40%) | B (61%-80%) |
| CSCC[C@H](N)C(=O)N[C@@H](CCCCN)C(=O)N[C@@H](Cc1ccc(O)cc1)C(=O)N[C@@H](Cc1c[nH]c2ccccc12)C(=O)N1CCC[C@H]1C(=O)N[C@H](CCSC)C(N)=O [Peptide 113] (HELM PEPTIDE1{M.K.Y.W.P.[dM].[am]}$$$$V2.0) | < 10 | 1000 to 10000 | D (21%-40%) | B (61%-80%) | D (21%-40%) |

More lines, main results first:

| EC50 (FPR2) [nM] | EC50 (FPR1) [nM] | SMILES | Cytokine inhibition ability IL-1β (RAW264.7 cell line) | Cytokine inhibition ability IL-6 (RAW264.7 cell line) | Cytokine inhibition ability TNFα (RAW264.7 cell line) |
| --- | --- | --- | --- | --- | --- |
| < 10 | > 10000 | CSCC[C@H](NC(=O)[C@@H](N)CCCNC(=N)N)C(=O)N[C@@H](CCCNC(=N)N)C(=O)N[C@@H](Cc1ccc(O)cc1)C(=O)N[C@@H](Cc1c[nH]c2ccccc12)C(=O)N[C@@H](Cc1ccc(O)cc1)C(=O)N[C@H](CCSC)C(N)=O [Peptide 81] (HELM PEPTIDE1{R.M.R.Y.W.Y.[dM].[am]}$$$$V2.0) | A (81%-100%) | C (41%-60%) | A (81%-100%) |
| < 10 | > 10000 | CSCC[C@H](NC(=O)[C@H](CCCNC(=N)N)NC(C)=O)C(=O)N[C@@H](CCCNC(=N)N)C(=O)N[C@@H](Cc1ccc(O)cc1)C(=O)N[C@@H](Cc1c[nH]c2ccccc12)C(=O)N[C@@H](Cc1ccc(O)cc1)C(=O)N[C@H](CCSC)C(N)=O [Peptide 82] (HELM PEPTIDE1{[ac].R.M.R.Y.W.Y.[dM].[am]}$$$$V2.0) | B (61%-80%) | D (21%-40%) | A (81%-100%) |
| 11 to 100 | > 10000 | CCCCCCCC(=O)N[C@@H](CCCNC(=N)N)C(=O)N[C@@H](CCSC)C(=O)N[C@@H](CCCNC(=N)N)C(=O)N[C@@H](Cc1ccc(O)cc1)C(=O)N[C@@H](Cc1c[nH]c2ccccc12)C(=O)N[C@@H](Cc1ccc(O)cc1)C(=O)N[C@H](CCSC)C(N)=O [Peptide 84] (HELM PEPTIDE1{[CCCCCCCC(=O)[*:2]].R.M.R.Y.W.Y.[dM].[am]}$$$$V2.0) | B (61%-80%) | E (0%-20%) | A (81%-100%) |
| < 10 | 1000 to 10000 | CSCC[C@H](NC(C)=O)C(=O)N[C@@H](CCCCN)C(=O)N[C@@H](Cc1ccc(O)cc1)C(=O)N[C@@H](Cc1c[nH]c2ccccc12)C(=O)N1CCC[C@H]1C(=O)N[C@H](CCSC)C(N)=O [Peptide 114] (HELM PEPTIDE1{[ac].M.K.Y.W.P.[dM].[am]}$$$$V2.0) | B (61%-80%) | E (0%-20%) | A (81%-100%) |
| < 10 | 1000 to 10000 | CCCC(=O)N[C@@H](CCSC)C(=O)N[C@@H](CCCCN)C(=O)N[C@@H](Cc1ccc(O)cc1)C(=O)N[C@@H](Cc1c[nH]c2ccccc12)C(=O)N1CCC[C@H]1C(=O)N[C@H](CCSC)C(N)=O [Peptide 115] (HELM PEPTIDE1{[CCCC(=O)[*:2]].M.K.Y.W.P.[dM].[am]}$$$$V2.0) | B (61%-80%) | B (61%-80%) | C (41%-60%) |
| 11 to 100 | 1000 to 10000 | CCCCCCCC(=O)N[C@@H](CCSC)C(=O)N[C@@H](CCCCN)C(=O)N[C@@H](Cc1ccc(O)cc1)C(=O)N[C@@H](Cc1c[nH]c2ccccc12)C(=O)N1CCC[C@H]1C(=O)N[C@H](CCSC)C(N)=O [Peptide 116] (HELM PEPTIDE1{[CCCCCCCC(=O)[*:2]].M.K.Y.W.P.[dM].[am]}$$$$V2.0) | B (61%-80%) | B (61%-80%) | B (61%-80%) |
